# Source: US20240043448A1, “Small Molecule Inhibitors of KRAS G12C Mutant” (Merck Sharp & Dohme LLC, priority 2019, published 2024)
# Like-named read-outs stand apart in the source and are kept apart here.
# Key:
# phospho-ERK = assay: Cellular phospho-ERK assay; type: cell-based; details: NCI-H358 cells, 2 hour incubation, ratio of p-Erk vs total Erk, read-out: IC50 (nM) pERK (Cell)
# In short: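 NCI-H358 cells seeded overnight, then exposed to compound dose-response titrations for 2 hours at 37° C. in RPMI. Lysates assayed by AlphaLISA SureFire Ultra multiplex for p-Erk and total Erk; ratio p-Erk/total Erk used as readout, IC50 from 4-parameter logistic fit.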
# [1] = molecular target: Biotinylated KRAS G12C protein (Homo sapiens (Human), UniProt P01116, C118S/C51S/C80L/G12C); assay: SOS-catalyzed nucleotide exchange assay (TR-FRET); type: biochemical; details: in vitro apparent potency; preincubation time of 60 minutes prior to addition of SOS
# Biotinylated KRAS G12C protein, sequence (P01116 other isoform, or with tags, fused parts or gaps, stated change not applied): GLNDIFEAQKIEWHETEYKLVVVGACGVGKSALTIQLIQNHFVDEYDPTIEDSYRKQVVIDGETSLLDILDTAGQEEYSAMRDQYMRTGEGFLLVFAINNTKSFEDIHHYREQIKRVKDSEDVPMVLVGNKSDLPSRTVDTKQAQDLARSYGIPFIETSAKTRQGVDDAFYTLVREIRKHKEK
# In short: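 Biotinylated KRAS G12C preloaded with Bodipy-GDP and Tb-streptavidin, then incubated with compound (10-point, 3-fold series) for 60 min at RT. Exchange started with SOS and GTP for 60 min. TR-FRET 520/495 ratio normalised to DMSO and saturating-inhibitor controls; four-parameter fit.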
SMILES,IC50 (phospho-ERK) [nM],IC50 [1] [nM],"IC50 (phospho-ERK; Homo sapiens, NCI-H358, 2 h) [nM]"
"C=CC(=O)N1C[C@H](C)N(c2nc(=O)n3c4nc(c(F)cc24)-c2c(cc(F)c(F)c2F)OCCCc2ccnc(C(C)C)c2-3)C[C@H]1C [Example 80, 2-[(2S,5R)-2,5-dimethyl-4-(prop-2-enoyl)piperazin-1-yl]-15,16,17,20-tetrafluoro-6-(propan-2-yl)-11,12-dihydro-4H,10H-1,18-ethenopyrido[4,3-d]pyrimido[1,6-g][1,7,9]benzoxadiazacyclododecin-4-one]",,2.6,54
"C=CC(=O)N1C[C@H](C)N(c2nc(=O)n3c4nc(c(F)cc24)-c2c(F)ccc(F)c2OCCCc2ccnc(C(C)C)c2-3)C[C@H]1C [Example 95, 2-[(2S,5R)-2,5-dimethyl-4-(prop-2-enoyl)piperazin-1-yl]-14,17,20-trifluoro-6-(propan-2-yl)-11,12-dihydro-4H,10H-1,18-(ethanediylidene)pyrido[4,3-e]pyrimido[1,6-g][1,7,9]benzoxadiazacyclododecin-4-one]",,2.5,15
"C=CC(=O)N1C[C@@H]2C[C@H]1CN2c1nc(=O)n2c3nc(c(F)cc13)-c1c(F)cccc1OCCCCc1ccnc(C(C)C)c1-2 [Example 104, 18,21-difluoro-6-(propan-2-yl)-2-[(1S,4S)-5-(prop-2-enoyl)-2,5-diazabicyclo[2.2.1]heptan-2-yl]-10,11,12,13-tetrahydro-4H-1,19-ethenopyrido[4,3-f]pyrimido[1,6-h][1,8,10]benzoxadiazacyclotridecin-4-one]",,1470,8850
"C=CC(=O)N1C[C@H](C)N(c2nc(=O)n3c4nc(c(F)cc24)-c2c(F)cccc2OCCOc2c(Cl)cnc(C(C)C)c2-3)C[C@H]1C [Example 70, 9-chloro-2-[(2S,5R)-2,5-dimethyl-4-(prop-2-enoyl)piperazin-1-yl]-17,20-difluoro-6-(propan-2-yl)-11,12-dihydro-4H-1,18-(ethanediylidene)pyrido[4,3-e]pyrimido[1,6-g][1,4,7,9]benzodioxadiazacyclododecin-4-one]",19,1.8,
"[2H]C1([2H])Oc2ccnc(C(C)C)c2-n2c(=O)nc(N3C[C@@H](C)N(C(=O)C=C)C[C@@H]3C)c3cc(F)c(nc32)-c2c(F)ccc(F)c2OC1([2H])[2H] [Example 67, 2-[(2S,5R)-2,5-Dimethyl-4-(prop-2-enoyl)piperazin-1-yl]-14,17,20-trifluoro-6-(propan-2-yl)-11,12-di[(^2H)hydro](11,12-^2H2)-4H-1,18-(ethanediylidene)pyrido [4,3-e]pyrimido[1,6-g][1,4,7,9] benzodioxadiazacyclo-dodecin-4-one]",,12,50
"C=CC(=O)N1CCN(c2nc(=O)n3c4nc(c(F)cc24)-c2c(F)cccc2OCCCCc2ccnc(C(C)C)c2-3)[C@H](C)C1 [Example 4b, 18,21-Difluoro-2-[(2S)-2-methyl-4-(prop-2-enoyl)piperazin-1-yl]-6-(propan-2-yl)-10,11,12,13-tetrahydro-4H-1,19-ethenopyrido[4,3-f]pyrimido[1,6-h][1,8,10]benzoxadiazacyclotridecin-4-one]",1160,6890,
"C=CC(=O)N1C[C@H](C)N(c2nc(=O)n3c4nc(c(F)cc24)-c2c(F)ccc(F)c2OCC2(CCc4ccnc(C(C)C)c4-3)CC2)C[C@H]1C [Example 61, 2′-[(2S,5R)-2,5-dimethyl-4-(prop-2-enoyl)piperazin-1-yl]-15′,18′,21′-trifluoro-6′-(propan-2-yl)-10′,11′-dihydro-4′H,13′H-spiro[cyclopropane-1,12′-[14]oxa [3,5,7,20]tetraaza[1,19] (ethanediylidene)pyrido[4,3-f]pyrimido[1,6-h][1,8,10]benzoxadiazacyclotri-decin]-4′-one]",,2.3,43
"C=CC(=O)N1C[C@H](C)N(c2nc(=O)n3c4nc(c(F)cc24)-c2c(F)cccc2OCCCCc2cnc(C(C)C)c-3c2C)C[C@H]1C [Example 88, 2-[(2S,5R)-2,5-dimethyl-4-(prop-2-enoyl)piperazin-1-yl]-19,22-difluoro-24-methyl-7-(propan-2-yl)-11,12,13,14-tetrahydro-4H-1,20-etheno-6,10-(metheno)pyrimido[1,6-k][1,8,11,13]benzoxatriazacyclohexadecin-4-one]",96,1.1,
"C=CC(=O)N1C[C@H](C)N(c2nc(=O)n3c4nc(c(F)cc24)-c2cccc(O)c2OCCCc2ccnc(C(C)C)c2-3)C[C@H]1C [Example 113, 2-[(2S,5R)-2,5-dimethyl-4-(prop-2-enoyl)piperazin-1-yl]-20-fluoro-14-hydroxy-6-(propan-2-yl)-11,12-dihydro-4H,10H-1,18-(ethanediylidene)pyrido[4,3-e]pyrimido[1,6-g][1,7,9]benzoxadiazacyclododecin-4-one]",113,33,
"C=C(F)C(=O)N1CCN(c2nc(=O)n3c4nc(c(F)cc24)-c2c(F)cccc2OCCCCc2ccnc(C(C)C)c2-3)[C@@H](C)C1 [Example 85, 18,21-difluoro-2-[(2S)-4-(2-fluoroprop-2-enoyl)-2-methylpiperazin-1-yl]-6-(propan-2-yl)-10,11,12,13-tetrahydro-4H-1,19-ethenopyrido[4,3-f]pyrimido[1,6-h][1,8,10]benzoxadiazacyclotridecin-4-one]",,47,198
"C=CC(=O)N1C[C@H](C)N(c2nc(=O)n3c4nc(c(F)cc24)-c2c(F)c(F)cc(F)c2OCCCc2ccnc(C(C)C)c2-3)C[C@H]1C [Example 77, 2-[(2S,5R)-2,5-dimethyl-4-(prop-2-enoyl)piperazin-1-yl]-14,16,17,20-tetrafluoro-6-(propan-2-yl)-11,12-dihydro-4H,10H-1,18-ethenopyrido[4,3-e]pyrimido[1,6-g][1,7,9]benzoxadiazacyclododecin-4-one]",,2.4,45
"C=CC(=O)N1CCN(c2nc(=O)n3c4nc(c(F)cc24)-c2c(F)cccc2OCCCc2ccnc(C(C)C)c2-3)C(C(F)F)C1 (stereo not shown) [Example 99, 2-[2-(difluoromethyl)-4-(prop-2-enoyl)piperazin-1-yl]-17,20-difluoro-6-(propan-2-yl)-11,12-dihydro-4H,10H-1,18-ethenopyrido[4,3-e]pyrimido[1,6-g][1,7,9]benzoxadiazacyclododecin-4-one]",,12,22
"C=CC(=O)N1C[C@H](C)N(c2nc(=O)n3c4nc(c(F)cc24)-c2cccc(F)c2OCCOc2ccnc(C(C)C)c2-3)C[C@H]1C [Example 114, 2-[(2S,5R)-2,5-dimethyl-4-(prop-2-enoyl)piperazin-1-yl]-14,20-difluoro-6-(propan-2-yl)-11,12-dihydro-4H-1,18-(ethanediylidene)pyrido[4,3-e]pyrimido[1,6-g][1,4,7,9]benzodioxadiazacyclododecin-4-one]",112,43,

# The remaining lines, values ahead:
IC50 (phospho-ERK) [nM],IC50 [1] [nM],"IC50 (phospho-ERK; Homo sapiens, NCI-H358, 2 h) [nM]",SMILES
1220,54,,"C=CC(=O)N1CCN(c2nc(=O)n3c4nc(c(F)cc24)-c2c(F)cccc2CC[C@@H](O)Cc2ccnc(C(C)C)c2-3)[C@@H](C)C1 [Example 118-2, 17,20-difluoro-11-hydroxy-2-[(2S)-2-methyl-4-(prop-2-enoyl)piperazin-1-yl]-6-(propan-2-yl)-10,11,12,13-tetrahydro-4H-1,18-ethenopyrido[3,4-e]pyrimido[6,1-c][2,4]benzodiazacyclododecin-4-one]"
,19,395,"C=CC(=O)N1CCN(c2nc(=O)n3c4nc(c(F)cc24)-c2c(F)cccc2OCCCc2ccnc(C(C)C)c2-3)C[C@@H]1CC#N (single isomer, unassigned) [Example 11a]"
1180,370,,"C=CC(=O)N1CCN(c2nc(=O)n3c4nc(c(F)cc24)-c2c(F)cccc2CCOCCc2ccnc(C(C)C)c2-3)[C@H](C)C1 [Example 17b, 18,21-difluoro-2-[(2S)-2-methyl-4-(prop-2-enoyl)piperazin-1-yl]-6-(propan-2-yl)-10,11,13,14-tetrahydro-4H-1,19-ethenopyrido[3,4-e]pyrimido[6,1-c][9,2,4]benzoxadiazacyclotridecin-4-one]"
66,11,,"C=CC(=O)N1CCN(c2nc(=O)n3c4nc(c(F)cc24)-c2c(F)cccc2CCOCCc2ccnc(C(C)C)c2-3)[C@@H](C)C1 [Example 17a, 18,21-difluoro-2-[(2S)-2-methyl-4-(prop-2-enoyl)piperazin-1-yl]-6-(propan-2-yl)-10,11,13,14-tetrahydro-4H-1,19-ethenopyrido[3,4-e]pyrimido[6,1-c][9,2,4]benzoxadiazacyclotridecin-4-one]"
79,9.8,,"C=CC(=O)N1CCN(c2nc(=O)n3c4nc(c(F)cc24)-c2c(F)cccc2OCCCCc2cnc(C(C)C)c-3c2)[C@@H](C)C1 (single isomer, unassigned) [Example 16a]"
,6.5,11,"C=CC(=O)N1C[C@H](C)N(c2nc(=O)n3c4nc(c(F)cc24)-c2c(F)cccc2OCCOc2ccnc(C(C)C)c2-3)C[C@H]1C (single isomer, unassigned) [Example 15a]"
19100,4420,,"C=CC(=O)N1CCN(c2nc(=O)n3c4nc(c(F)cc24)-c2cccc4cnn(c24)CCCOc2ccnc(C(C)C)c2-3)[C@@H](C)C1 [Example 3a, 22-fluoro-2-[(2S)-2-methyl-4-(prop-2-enoyl)piperazin-1-yl]-6-(propan-2-yl)-12,13-dihydro-4H,11H-1,20-ethenopyrido[4′,3′:2,3]pyrimido[1′,6′:4,5][1,4,6,10]oxatriazacyclotridecino[8,9,10-hi]indazol-4-one]"
